Results as given in US20250268925A1, “METHODS OF TREATING MEDICAL CONDITIONS AND INHIBITING LINE1 REVERSE TRANSCRIPTASE USING A SUBSTITUTED ADENINYL-PROPYLOXY PHOSPHONIC ACID OR RELATED COMPOUND” (ROME THERAPEUTICS, INC., priority 2021, published 2025).

Tests used:
Type 1 Interferon = test: Cellular assay for altering IFN production in THP1 TREX1 KO cells; type: cell-based; conditions: THP1-Dual KO-TREX1 cells, 1 μM 5-aza-2′-deoxycytidine, five days; direction of effect per figure legend
Protocol: (§1) THP1-Dual™ KO-TREX1 cells were purchased from Invivogen (cat #thpd-kotrex). The THP1-Dual™ KO-TREX1 cells were cultured in RPMI 1640, 10% heat-inactivated fetal bovine serum, 25 mM HEPES, 10 μg/mL Blasticidin, and 100 μg/mL Zeocin. THP1-Dual™ KO-TREX1 cells were treated with a dose titration of test compound in the presence of 1 μM 5-aza-2′-deoxycytidine (Sigma, cat #189825). Type 1 Interferon and cell viability were assessed after five days of treatment.
Stock solution of test compound was prepared in DMSO followed by a three-fold dilution in DMSO. Additional 50× dilution was prepared in cell culture media for each dilution. 10 μL of diluted test compound was then added to a 384-well plate.
THP1-Dual™ KO-TREX1 cells were treated with 1 μM 5-aza-2′-deoxycytidine. The THP1-Dual™ KO-TREX1 cells (50 μL) were added to each well of the 384-well plate containing test compound titration at 10,000 cells/well. Cells were incubated at 37° C., 5% CO2 in a humidified incubator for five days. On day five, 20 μL of cell supernatant was transferred to a 384-well, white-walled plate, followed by addition to each well of 50 μL of QUANTI-LUC solution containing stabilizer. Luminescence was detected on a plate reader according to manufacturer's instructions. Percent inhibition of interferon was calculated using the following analysis: (Average DMSO−Sample)/(Average DMSO−Average 30 μM control reagent)*100. Percent induction of interferon was calculated using the following analysis: (Sample−Average DMSO)/(10 μM control reagent−Average DMSO)*100.

[1] = target: T1, LINE1 reverse transcriptase (Homo sapiens, UniProt O00370); test: Stable artificial-intron Cis LINE1 reporter assay; type: cell-based; design: expressed in transfected cells; host or cells: HeLa Tet-On 3G (Takara, cat no 631183)
Source text: A stable HeLa Tet-On 3G (Takara, cat no 631183) cell line expressing a bi-directional inducible LINE1 construct was generated as described in Xie, Y. et al. “Cell division promotes efficient retrotransposition in a stable L1 reporter cell line,” Mobile DNA (2013) 4:10. Single cell clones were screened for high Luciferase expression and the highest expression Firefly expressing clone was chosen for compound testing.
Test compounds were serially diluted in DMSO and spotted in 96-well plates. Subsequently the HeLa L1 artificial-intron reporter cells were plated into the compound-containing wells (8,000 cells/well), and the cells were induced for reporter expression with doxycycline (Sigma cat no D9891) at a final concentration of 500 ng/mL. Luminescence was measured 72 h after plating using the Dual-Glo Luciferase Assay System (Promega cat no E2940) following the manufacturer's instructions. The Firefly Luciferase activity (normalized against its activity in a control well without test compound) was used to report LINE1 activity.

[2] = target: T2, recombinant MBP-tagged LINE1 protein (238-1061) (Homo sapiens, UniProt O00370); test: Homogeneous time-resolved fluorescence (HTRF) LINE1 RT assay; type: biochemical; conditions: tetra(sodium) salt; 25° C., 60 minutes
T2 construct: recombinant MBP-tagged LINE1 protein (238-1061); made in house
Protocol: The LINE1 reverse transcriptase homogeneous time-resolved fluorescence (HTRF) assay was performed with recombinant MBP-tagged LINE1 protein (238-1061) (generated and purified according to procedures in Dai L. et al. BMC Biochemistry 2011; 12:18) in a 384-well format. Test compound was serially diluted in DMSO and further diluted in the assay buffer (50 mM Tris-HCl, 50 mM KCl, 10 mM MgCl2, 10 mM DTT, pH 8.1) to achieve a final DMSO concentration of 1%. The serially diluted compound was mixed with 64 ng/well of LINE1 enzyme, 5 nM of pre-annealed template/biotin-primer pair (synthesized at Generay Biotechnology), 10 nM of Fluorescein-12-dATP fluorescent probe (Perkin Elmer), and 1 μM dGTP/dCTP/dTTP (Thermo Fisher Scientific) in the assay buffer. The template/biotin-primer sequences were as follows:
(§2) After incubating at 25° C. for 60 minutes, the detection reagent (20 mM EDTA with streptavidin-terbium cryptate, Cisbio Bioassay) in the PPI buffer (Cisbio Bioassay) was added, and the mixture was incubated at 25° C. for 30 minutes. At the end of the incubation, fluorescence was read at ex/em=337/485 nm and ex/em=337/520 nm on an Envision 2104 plate reader (Perkin Elmer). The fluorescence ratio at 520/485 nm was used for the calculation. […] The IC50 was calculated by fitting the compound dose inhibition curve with a 4-parameter non-linear regression equation.

[3] = target: T1, LINE1 reverse transcriptase; test: Transient artificial-intron Cis LINE1 reporter assay; type: cell-based; design: expressed in transfected cells
Protocol: Intron-disrupted Firefly luciferase (FLuc) expression cassettes were generated as described by Xie, Y. et al. “Characterization of L1 retrotransposition with high-throughput dual-luciferase assays,” Nucleic Acid Res. (2011) Vol. 39, No. 3, e16. In addition, the plasmid contained an intact Renilla luciferase (RLuc) expression cassette on the vector backbone, in order to normalize transfection efficiency and measure potential cell toxicity.
HEK 293 cells were seeded in 96-well plates at 1,000 cells/well in 55 μL and grown for 24 hours. Cells were transfected with FuGeneHD (Promega) following the manufacturer's protocol. Each well received 0.133 ng plasmid, 0.4 μL FuGeneHD reagent, and 4.5 μL GlutaMAX-I-supplemented Opti-MEM I reduced-serum medium (Invitrogen). Cells were simultaneously treated with test compound serially diluted starting at 100 μM in a 3-fold dilution dose response.
Luminescence was measured using the Dual-Glo Luciferase Assay System (Promega) following the manufacturer's instructions. The ratio between FLuc and RLuc gene expression (each of which was normalized against its expression in a control well without test compound) was used to report LINE1 activity.

[4] = CellTiter-Glo cell viability in THP1-Dual KO-TREX1 cells; type: cell-based; conditions: human, 10 μM compound (highest dose), five days, read-out: CellTiter-Glo average inhibition (cell viability)
Protocol: as §1
THP1-Dual™ KO-TREX1 cells were treated with 1 μM 5-aza-2′-deoxycytidine. The THP1-Dual™ KO-TREX1 cells (50 μL) were added to each well of the 384-well plate containing test compound titration at 10,000 cells/well. Cells were incubated at 37° C., 5% CO2 in a humidified incubator for five days. […] Luminescence was detected on a plate reader according to manufacturer's instructions. […] Percent induction of interferon was calculated using the following analysis: (Sample−Average DMSO)/(10 μM control reagent−Average DMSO)*100.
The remaining cells were assessed for cell viability by adding 30 μl of CellTiter-Glo (Promega, G9683) solution to each well, and placed on a shaker for 10 minutes at room temperature. Luminescence was detected on a plate reader, according to manufacturer's instructions. Percent inhibition of cell viability using CellTiter-Glo was calculated using the following analysis. […]

[5] = target: T3, HERV-K reverse transcriptase (2-596)-8His protein (Homo sapiens, UniProt V9H0F6); test: Homogeneous time-resolved fluorescence (HTRF) HERV-K RT assay; type: biochemical; conditions: tetra(sodium) salt; 25° C., 30 minutes
T3 construct: fused on or other part: C-terminal 8His tag
T3 sequence (V9H0F6 entry or part of it): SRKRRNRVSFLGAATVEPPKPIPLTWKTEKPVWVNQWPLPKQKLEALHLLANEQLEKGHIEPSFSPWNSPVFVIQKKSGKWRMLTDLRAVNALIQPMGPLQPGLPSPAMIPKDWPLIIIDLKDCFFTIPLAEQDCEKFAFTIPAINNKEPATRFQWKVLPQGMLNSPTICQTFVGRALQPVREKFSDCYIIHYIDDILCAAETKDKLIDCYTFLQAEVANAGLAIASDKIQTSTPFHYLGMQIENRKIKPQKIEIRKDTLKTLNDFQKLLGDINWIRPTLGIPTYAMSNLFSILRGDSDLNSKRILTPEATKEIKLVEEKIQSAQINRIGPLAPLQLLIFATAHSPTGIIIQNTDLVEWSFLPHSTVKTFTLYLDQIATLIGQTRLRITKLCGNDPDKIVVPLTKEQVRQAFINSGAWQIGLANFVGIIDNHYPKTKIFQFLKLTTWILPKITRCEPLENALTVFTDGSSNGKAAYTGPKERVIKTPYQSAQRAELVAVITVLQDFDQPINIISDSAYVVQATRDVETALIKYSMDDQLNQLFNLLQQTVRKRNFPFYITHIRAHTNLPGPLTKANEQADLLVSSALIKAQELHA
Protocol: The HERV-K reverse transcriptase homogeneous time-resolved fluorescence (HTRF) assay was performed in a 384-well format with HERV-K reverse transcriptase (2-596)-8His protein. Baculoviruses were created using Bac-to-Bac technology (Invitrogen). pFastBac donor plasmids containing HERV-K reverse transcriptase sequence (NCBI GenBank number AAC63291.1, J. Virology (1999) Vol. 73, No. 3, pp. 2365-2375) were transformed into DH10 Bac cells following the manufacturer's instructions. Recombinant bacmids were then isolated clonally and transfected into SF9 cells with lipofectin. HERV-K reverse transcriptase was expressed in the SF9 insect cells and then purified using immobilized metal affinity chromatography (IMAC) followed by size-exclusion chromatography (SEC). […]
as §2, with “30” for “60”, “20” for “(20”, “cryptate (Cisbio” for “cryptate, Cisbio”, “60” for “30”

[6] = HeLa Tet-On 3G L1 reporter cells, doxycycline 500 ng/mL, 72 h, Firefly luciferase, read-out: IC50
[7] = HEK 293 cells, transient LINE1 reporter, no detectable IC50 when tested at concentrations up to 100 μM, read-out: IC50
[8] = HEK 293 cells, FLuc/RLuc ratio, transient LINE1 reporter, read-out: IC50

Structure (SMILES)	IC50 [1, 6] [nM]	changes in IFN levels (inhibition or induction of IFN) (Type 1 Interferon)	further results
CCCCCCCCCCCCCCCCOCCCOP(=O)(O)CO[C@H](C)Cn1cnc2c(N)ncnc21 [VI-1]	50 to 500	induction of IFN	–
C[C@H](Cn1cnc2c(N)ncnc21)OCP(=O)(O)OP(=O)(O)OP(=O)(O)O [drawing 1227]	–	–	IC50 [2]: 71 nM
CC(C)OC(=O)C(C)(C)N[P@](=O)(CO[C@H](C)Cn1cnc2c(N)ncnc21)Oc1ccccc1 [Compound I-20]	< 50	inhibition of IFN	cytotoxicity at 5 days, 10 μM [4]: 65%
C[C@H](Cc1ccc2c(N)ncnn12)OCP(=O)(O)O [Compound V-105]	> 500	–	–
Nc1ccn([C@H]2CO[C@@H](CO)S2)c(=O)n1 [apricitabine]	–	–	IC50 [3, 7]: > 100 µM
CC(C)OC(=O)[C@H](C)N[P@](=O)(CO[C@H](C)Cn1cnc2c(N)ncnc21)Oc1ccccc1 [Compound I-1]	–	inhibition of IFN	cytotoxicity at 5 days, 10 μM [4]: 57%; IC50 [3]: < 0.05 µM; IC50 [1]: < 50 nM
Nc1nc(=O)c2ncn([C@@H]3C[C@H](CO)[C@H]3CO)c2[nH]1 [lobucavir, reference compound]	> 500	–	IC50 [3, 7]: > 100 µM
C[C@H](Cn1cnc2c(N)ncnc21)OCP(=O)(O)OP(=O)(O)OP(=O)(O)O [drawing 1228]	–	–	IC50 [5]: 20 nM
CC(C)OC(=O)OCOP(=O)(CO[C@H](C)Cn1cnc2c(N)ncnc21)OCOC(=O)OC(C)C [Compound V-7]	50 to 500	–	IC50 [3, 8]: < 0.05 µM
CC(C)OC(=O)C(C)(C)N[P@@](=O)(CO[C@H](C)Cn1cnc2c(N)ncnc21)Oc1ccccc1 [Compound I-21]	50 to 500	induction of IFN	–
Nc1ccn([C@@H]2CS[C@H](CO)O2)c(=O)n1 [lamivudine (3TC), lamivudine, reference compound]	> 500	–	IC50 [3, 7]: > 100 µM
C[C@H](Cn1cnc2c(N)ncnc21)OCP(=O)(O)O [Compound V-1]	> 500	inhibition of IFN	IC50 [3, 8]: > 0.5 µM
CC(C)OC(=O)[C@H](C)NP(=O)(CO[C@H](C)Cc1ccc2c(N)ncnn12)Oc1ccccc1 (some centres unmarked) [Compound I-115]	50 to 500	induction of IFN	–

The next lines start with results.

IC50 [1, 6] [nM]	Structure (SMILES)	changes in IFN levels (inhibition or induction of IFN) (Type 1 Interferon)	further results
> 500	Cc1cn([C@H]2C[C@H](N=[N+]=[N-])[C@@H](CO)O2)c(=O)[nH]c1=O [AZT (zidovudine), zidovudine, reference compound]	–	IC50 [3, 7]: > 100 µM
> 500	CC(C)OC(=O)OCOP(=O)(CO[C@H](C)Cc1ccc2c(N)ncnn12)OCOC(=O)OC(C)C [Compound V-106]	–	–
